Results taken from PubChem BioAssay (NCI).
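GI50 is the concentration that inhibits growth by half. TGI is the concentration that stops growth completely.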

How the values were obtained:
Assay in all cases: NCI tumour cell line growth inhibition, 384-well format
[1] = tested on: SNB-75 CNS
[2] = tested on: MDA-MB-231 breast
[3] = tested on: OVCAR-8 ovarian
[4] = tested on: DU-145 prostate
[5] = tested on: HT29 colon
[6] = tested on: SW-620 colon
[7] = tested on: NCI-H460 NSCLC
[8] = tested on: PC-3 prostate
[9] = tested on: SK-MEL-2 melanoma
[10] = tested on: ACHN renal
[11] = tested on: IGROV1 ovarian
[12] = tested on: NCI/ADR-RES ovarian
[13] = tested on: UACC-257 melanoma

Compound | GI50 [1] | TGI [1] | GI50 [2] | TGI [2] | GI50 [3] | TGI [3] | GI50 [4] | TGI [4] | GI50 [5] | TGI [5] | GI50 [6] | TGI [6] | GI50 [7] | TGI [7] | GI50 [8] | TGI [8] | GI50 [9] | TGI [9] | GI50 [10] | TGI [10] | further results
CC(C)n1cc(-c2ccc3c(c2)N(C)CC3)c2c(NS(=O)(=O)c3ccn(C)n3)ccnc21 | > 88.1 µM | > 100 µM | > 68.8 µM | > 100 µM | > 70.4 µM | > 100 µM | > 70.7 µM | > 100 µM | > 77.2 µM | > 100 µM | > 51.5 µM | > 81.7 µM | > 85.7 µM | > 100 µM | 66.7 µM | > 100 µM | > 100 µM | > 100 µM | > 100 µM | > 100 µM | GI50 [11]: > 74.4 µM; TGI [11]: > 100 µM; GI50 [12]: 61.2 µM; TGI [12]: > 100 µM; GI50 [13]: > 100 µM; TGI [13]: > 100 µM
Cc1nc2ccc(-n3ncc(C(=O)c4cc5ccccc5[nH]4)c3N)cc2[nH]1 | 2.34 µM | 19.8 µM | 4.8 µM | 44.9 µM | 6.08 µM | 18.8 µM | 12.7 µM | 41.7 µM | 5.55 µM | 20.5 µM | 10.4 µM | 51.2 µM | 2.37 µM | 9.74 µM | 7.51 µM | 26.6 µM | 28.2 µM | 44 µM | 8.92 µM | 48.5 µM | GI50 [11]: 6 µM; TGI [11]: 22.8 µM; GI50 [12]: 8.76 µM; TGI [12]: 23.8 µM; GI50 [13]: 15.1 µM; TGI [13]: 32.6 µM
